According to US20230346769A1, “USE OF SIMPLE ACYCLIC POLYAMINES FOR THE TREATMENT OF DISEASES CAUSED BY PARASITES OF THE GENUS LEISHMANIA” (Universidad De Granada, priority 2020, published 2023):
Entries after “also recorded” stand apart in the source; their conditions may differ.

Key:
[1] = Potentiometric titrations, protonation constants; assay type: physicochemical; settings: 0.15 M NaCl, 298.1 K
Description: FEM measurements. Potentiometric titrations were conducted at 298.1 ± 0.1 K using 0.15 M NaCl as the support electrolyte. The experimental procedure (burette, potentiometer, cell, stirrer, microcomputer, etc.) has been fully described elsewhere (E. García-Spain, M.-J. Ballester, F. Lloret, J.M. Moratal, J. Faus and A. Bianchi, J. Chem. Soc. Dalton Trans. 1988, 101-104). The FEM data acquisition was performed with the PASAT software (M. Fontanelli and M. Micheloni, Program for the automatic control of the microburette and the acquisition of the electromotor force readings (PASAT). Minutes of the 1st Spanish-Italian Congress of Thermodynamics of Metal Complexes, Peñíscola, Castellón, Spain, 1990). The reference electrode was an Ag/AgCl electrode in saturated KCI solution. The glass electrode was calibrated as a hydrogen ion concentration probe by titration of previously standardised amounts of HCl with CO2 free NaOH solutions and the equivalent point determined by Gran’s method ((a) G. Gran, Analyst 1952, 77, 661 -671; (b) F.J. Rossotti and H. Rossotti, J. Chem. Educ. 1965, 42, 375-378) providing the standard potential, Eº’, and the ionic product of water (pKw = 13.73 (1)).
Hyperquad software was used to calculate protonation and stability constants (P. Gans, A. Sabatini and A. Vacca, Talanta 1996, 43, 1739-1753). The pH range investigated was 2.5-11.0 and the concentration of the ligands varied from 1×10^-3 to 5×10^-3 M. The different titration curves for each system (at least two) were treated as a single set or as separate curves without significant variations in the values of the stability constants. Finally, the data sets were fused and treated simultaneously to give the final protonation constants (Table 1). For compounds 1, 7 and 9, two protonation constants have been detected in the pH range studied with values ranging from 5.51 to 9.68 logarithmic units. For the remaining compounds, three protonation constants have been measured with values ranging from 10.08 to 2.25 logarithmic units. All compounds have charge +1 at the physiological pH value of 7.4.

[2] = system: intracellular forms of L.infantum in J774.2 macrophages; assay: Infection rate and parasite growth in infected macrophage cultures; assay type: cell-based, Leishmania infantum; settings: compound at IC25, 10 days
Description: Methodology: Macrophages of the J774.2 line preserved in the laboratory of the present inventors by cryopreservation at -80° C. and successive runs in MEM+Glutamine + 20% SBFI medium were used, which were deposited in a […] tube and centrifuged at 100 g for 5 minutes. The supernatant was discarded and the cells were resuspended in medium corresponding to a final concentration of 1×10^6 cells/ml. Subsequently, 10 μl of the cell suspension was deposited into each well of a 24-well culture plate each with a 10 mm diameter round slide. A final volume of 500 μl was completed with the culture medium and incubated for 24 h at 37° C. in humid atmosphere with 5% CO2. […] The non-phagocytic parasites and products were removed by washing and the infected cultures were maintained for 10 days in fresh medium added every 48 hours. The activity of the compounds was determined by the percentage of infected cells and the number of amastigotes per infected cell. Finally, the cultures were fixed and stained with methanol and Giemsa.

[3] = system: FeSOD of promastigote forms of L.infantum; assay: In vitro inhibition of FeSOD (NBT reduction); assay type: biochemical, Leishmania infantum
Description: (§1) Methodology: Compounds that were selected from the leishmanicidal activity shown in previous experiments were evaluated as inhibitors of FeSOD enzyme activity, which is unique to the kinetoplastid parasites to which Leishmania belongs. Being exclusive, it is absent in the vertebrate host, since these usually have an analogous form of that enzyme, but complexed to a copper or zinc atom (Cu/ZnSOD). For this reason, this enzyme is a therapeutic target for the design of new drugs, since the capture of the metal ion by complexing mechanisms can inactivate the enzyme and compromise the survival of the parasite with the appearance of free radicals.
Inhibition caused by the novel compounds on FeSOD/ Cu-Zn SOD activity was quantified on the spectrophotometer at 560 nm according to the technique described by [W F. Beyer. I. Fridovich. Anal Biochem. 1987. 161: 559-66] based on the determination of the reduction of NBT (nitro blue tetrazolium) by superoxide ions and which the group of the present inventors has developed for the assay in trypanosomatides, being a routine technique in the laboratory of said group [F. Luque. et. al. Comp. Biochem. Physiol. C Toxicol. Pharmacol. 2000. 126: 39-44; M. Sanchez-Moreno. Med. Chem. 2011. 54. 970-9; I. Ramírez-Macías. et. al. J. Antimicrob. Chemother 2011. 66(4): […]].
Briefly, the cultured parasites as described in Example 1 underwent centrifugation, the pellet was resuspended (0.5 - 0.6 g/ml) in 3 ml of STE buffer ([…]. pH 7.8) and underwent 3 cycles of sonication from 30 s at 60 V. Then, it was centrifuged at 1500 g for 10 min at 4° C. and the pellet was washed 3 times with ice-cooled STE buffer. This fraction was centrifuged (2500 g for 10 min at 4° C.) and the supernatant was subsequently collected. Protein concentrations were determined by means of the Bradford method (Sigma-Aldrich) using bovine serum albumin as standard. […] A first measurement of the absorbance at 560 nm was made on a spectrophotometer and, after 10 minutes under light and under stirring conditions, the absorbance was re-determined. […]

Leishmania donovani = assay: Mitochondrial membrane potential by rhodamine staining and flow cytometry; assay type: cell-based; settings: L.donovani, compound at IC25, 72 h
Description: Methodology: Similar to the assay of Example 5, an amount of 5×10^4 parasites/ml of Leishmania donovani was re-treated with the IC25 of compounds 2 and 4, this time in a final volume in the 5 ml steriling conical bottom flasks. Again, after 72 h of incubation under the same conditions as described in Example 5, the flasks were centrifuged at 400 g for 10 minutes and the pellet was washed by resuspending with PBS three times. The pellet was resuspended with 0.5 mL of PBS with 10 µg/mL rhodamine after the last wash. A cytometry analysis was performed after 20 minutes of action of the rhodamine.

[4] = system: FeSOD of the promastigote forms of L.braziliensis; assay: In vitro inhibition of FeSOD (NBT reduction); assay type: biochemical, Leishmania braziliensis
Description: as §1
Inhibition caused by the novel compounds on FeSOD/ Cu-Zn SOD activity was quantified on the spectrophotometer at 560 nm according to the technique described by [W F. Beyer. I. Fridovich. Anal Biochem. 1987. […]
Briefly, the cultured parasites as described in Example 1 underwent centrifugation, the pellet was resuspended (0.5 - 0.6 g/ml) in 3 ml of STE buffer (0.25 M. Tris-HCI 25 mM sucrose. 1 M EDTA. pH 7.8) and underwent 3 cycles of sonication from 30 s at 60 V. Then, it was centrifuged at 1500 g for 10 min at 4° C. and the pellet was washed 3 times with ice-cooled STE buffer. […] Protein concentrations were determined by means of the Bradford method (Sigma-Aldrich) using bovine serum albumin as standard. […]

CN(C)CCNCc1cccnc1 [Compound 5, 1-{3-pyridyl}-5-methyl-2,5-diazahexane]
Log β [1]: 17.98(1)
Logarithm of the protonation constant H2L+H ⇌ H3L [1]: 3.16(1)
Logarithm of the protonation constant H+L ⇌ HL [1]: 9.18(1)
Logarithm of the protonation constant HL+H ⇌ H2L [1]: 5.63(1)
Percentage of infection (infection rate) [2]: lower infection rates than compound 4 until 8 days had elapsed
Concentration for 50% inhibition (IC50) of FeSOD of L.infantum [3]: less than that necessary to achieve the same percentage of inhibition of the CuZnSOD enzyme of human erythrocytes; also recorded: showed ability to inhibit FeSOD

CN(C)CCNCc1ccnc2ccccc12 [Compound 8, 1-{4-quinolyl)-5-methyl-2,5-diazahexane]
Log β [1]: 18.99(2)
Logarithm of the protonation constant H2L+H ⇌ H3L [1]: 3.32(1)
Logarithm of the protonation constant H+L ⇌ HL [1]: 10.08(1)
Logarithm of the protonation constant HL+H ⇌ H2L [1]: 5.59(1)

CNCCNCc1ccncc1 [Compound 3, 1-{4-pyridyl)-2,5-diazahexane]
Log β [1]: 18.60(1)
Logarithm of the protonation constant H2L+H ⇌ H3L [1]: 3.390(6)
Logarithm of the protonation constant H+L ⇌ HL [1]: 9.503(5)
Logarithm of the protonation constant HL+H ⇌ H2L [1]: 5.713(5)

CNCCNCc1cccnc1 [Compound 2, 1-{3-pyridyl)-2,5-diazahexane]
Log β [1]: 18.29(3)
Logarithm of the protonation constant H2L+H ⇌ H3L [1]: 2.95(2)
Logarithm of the protonation constant H+L ⇌ HL [1]: 9.653(5)
Logarithm of the protonation constant HL+H ⇌ H2L [1]: 5.687(5)
Effect on mitochondrial membrane potential (Leishmania donovani): only a slight depolarisation
Concentration for 50% inhibition (IC50) of FeSOD of L.braziliensis [4]: showed ability to inhibit FeSOD
Number of amastigotes per infected cell [2]: lowest values over time
Percentage of infection (infection rate) [2]: lowest values over time
Concentration for 50% inhibition (IC50) of FeSOD of L.infantum [3]: less than that necessary to achieve the same percentage of inhibition of the CuZnSOD enzyme of human erythrocytes; also recorded: showed ability to inhibit FeSOD; also recorded: low IC50 value

CNCCNCc1ccnc2ccccc12 [Compound 10]
Log β [1]: 17.99(1)
Logarithm of the protonation constant H2L+H ⇌ H3L [1]: 3.183(8)
Logarithm of the protonation constant H+L ⇌ HL [1]: 9.512(6)
Logarithm of the protonation constant HL+H ⇌ H2L [1]: 5.297(7)

CNCCNCc1ccc2ccccc2n1 [Compound 9, 1-{2-quinolyl)-2,5-diazahexane]
Log β [1]: 15.10(3)
Logarithm of the protonation constant H+L ⇌ HL [1]: 9.68(2)
Logarithm of the protonation constant HL+H ⇌ H2L [1]: 5.41(2)

CN(C)CCNCc1ccc2ccccc2n1 [Compound 7]
Log β [1]: 14.63 (1)
Logarithm of the protonation constant H+L ⇌ HL [1]: 9.17(1)
Logarithm of the protonation constant HL+H ⇌ H2L [1]: 5.45(1)

CN(C)CCNCc1ccccn1 [Compound 4, 1-(2-pyridyl)-5-methyl-2,5-diazahexane]
Log β [1]: 16.88(2)
Logarithm of the protonation constant H2L+H ⇌ H3L [1]: 2.25(2)
Logarithm of the protonation constant H+L ⇌ HL [1]: 9.06(1) ^b
Logarithm of the protonation constant HL+H ⇌ H2L [1]: 5.58(1)
Effect on mitochondrial membrane potential (Leishmania donovani): only a slight depolarisation
Concentration for 50% inhibition (IC50) of FeSOD of L.braziliensis [4]: lower than that necessary for the enzyme of human erythrocytes; also recorded: showed ability to inhibit FeSOD
Number of amastigotes per infected cell [2]: better (lower) than those obtained with compound 5
Percentage of infection (infection rate) [2]: lower infection rate on day 10
Concentration for 50% inhibition (IC50) of FeSOD of L.infantum [3]: less than that necessary to achieve the same percentage of inhibition of the CuZnSOD enzyme of human erythrocytes; also recorded: showed ability to inhibit FeSOD

CN(C)CCNCc1ccncc1 [Compound 6]
Log β [1]: 17.22 (1)
Logarithm of the protonation constant H2L+H ⇌ H3L [1]: 2.956(6)
Logarithm of the protonation constant H+L ⇌ HL [1]: 8.865(3)
Logarithm of the protonation constant HL+H ⇌ H2L [1]: 5.407(3)

CNCCNCc1ccccn1 [Compound 1, 1-{2-pyridyl}-2,5-diazahexane]
Log β [1]: 15.25(1)
Logarithm of the protonation constant H+L ⇌ HL [1]: 9.63(1) ^b
Logarithm of the protonation constant HL+H ⇌ H2L [1]: 5.62(1)
